Test results reported in US20260158017A1, “KIF18A INHIBITOR” (WIGEN BIOMEDICINE TECHNOLOGY (SHANGHAI) CO., LTD., priority 2021, published 2026).

Molecular target: T1, Recombinant human KIF18A (1-467His-tagged) protein (Homo sapiens, UniProt Q8NI77)
T1 construct: Recombinant human KIF18A (1-467His-tagged) protein; His; made in house
Experiment: KIF18A enzyme assay (microtubule-stimulated ATPase activity, ADP-Glo)
Format: biochemical
Details: 30 nM KIF18A, 75 μM ATP, 30 μg/mL pig microtubules; read-out: Inhibitory activity against KIF18A IC50
Procedure, shortened: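 Buffer 15 mM Tris pH 7.5, 10 mM MgCl2, 0.01% Pluronic F-68, 1 μM paclitaxel, 30 μg/mL pig microtubules; reactions at room temperature. IC50 from inhibition relative to DMSO.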

T1 sequence (Q8NI77 1-467): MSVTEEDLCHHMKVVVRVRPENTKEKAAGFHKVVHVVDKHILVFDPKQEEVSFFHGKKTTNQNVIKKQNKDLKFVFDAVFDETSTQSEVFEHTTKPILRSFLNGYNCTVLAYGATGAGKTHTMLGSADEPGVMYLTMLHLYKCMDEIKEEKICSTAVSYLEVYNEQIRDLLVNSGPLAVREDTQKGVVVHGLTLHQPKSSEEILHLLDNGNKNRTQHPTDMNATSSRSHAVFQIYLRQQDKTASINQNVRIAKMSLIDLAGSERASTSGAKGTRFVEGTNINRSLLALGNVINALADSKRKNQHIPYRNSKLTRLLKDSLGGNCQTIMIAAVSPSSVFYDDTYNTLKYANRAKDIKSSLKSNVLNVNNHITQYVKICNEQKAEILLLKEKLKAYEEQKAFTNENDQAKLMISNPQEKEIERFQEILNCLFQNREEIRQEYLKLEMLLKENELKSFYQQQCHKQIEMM
T1 sequence (P02550 whole entry partner): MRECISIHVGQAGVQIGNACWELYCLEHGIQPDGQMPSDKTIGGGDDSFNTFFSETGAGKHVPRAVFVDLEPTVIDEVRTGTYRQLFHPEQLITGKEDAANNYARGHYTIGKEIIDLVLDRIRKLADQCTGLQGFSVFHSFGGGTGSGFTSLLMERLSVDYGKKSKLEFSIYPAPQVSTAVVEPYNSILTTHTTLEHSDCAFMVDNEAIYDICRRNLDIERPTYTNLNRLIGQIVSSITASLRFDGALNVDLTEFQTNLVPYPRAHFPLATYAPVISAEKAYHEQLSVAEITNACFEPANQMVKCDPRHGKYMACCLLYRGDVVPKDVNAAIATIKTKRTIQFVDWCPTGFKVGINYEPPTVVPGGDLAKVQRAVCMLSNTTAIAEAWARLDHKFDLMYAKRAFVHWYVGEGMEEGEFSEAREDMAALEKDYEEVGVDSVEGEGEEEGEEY
T1 sequence (P02554 whole entry partner): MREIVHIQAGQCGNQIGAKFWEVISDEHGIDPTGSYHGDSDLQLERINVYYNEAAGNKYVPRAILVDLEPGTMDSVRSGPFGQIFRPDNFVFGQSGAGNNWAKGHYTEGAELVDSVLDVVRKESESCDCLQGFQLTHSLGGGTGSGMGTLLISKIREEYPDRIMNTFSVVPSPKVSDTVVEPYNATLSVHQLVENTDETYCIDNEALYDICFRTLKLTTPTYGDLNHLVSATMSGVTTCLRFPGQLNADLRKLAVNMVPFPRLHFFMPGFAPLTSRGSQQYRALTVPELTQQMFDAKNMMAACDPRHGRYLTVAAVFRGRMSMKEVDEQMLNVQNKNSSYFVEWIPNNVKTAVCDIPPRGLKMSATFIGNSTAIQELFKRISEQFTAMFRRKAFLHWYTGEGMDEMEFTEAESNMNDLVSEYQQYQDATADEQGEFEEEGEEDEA

Row | Compound | IC50 [nM]
1 | C[C@@H]1CN(c2nc(NC(=O)c3ccc(NS(=O)(=O)[C@@H](C)CO)cc3N3CCC4(CC3)CC4)ccc2OCF)CCO1 [Compound 431] | ≤ 100
2 | C[C@@H]1CN(c2nc(NC(=O)c3ccc(NS(=O)(=O)[C@H](C)CO)cc3N3CCC4(CC3)CC4)ccc2OCF)CCO1 [Compound 432] | ≤ 100
3 | O=C(Nc1ccc(OCF)c(N2CCC(F)(F)CC2)n1)c1ccc(S(=O)(=O)NCCO)cc1N1CCC2(CC1)CC2 [Compound 433] | ≤ 100
4 | C[C@@H]1CN(c2nc(NC(=O)c3ccc(S(=O)(=O)NCCO)cc3N3CCC4(CC3)CC4)ccc2OCF)CCO1 [Compound 434] | ≤ 100
5 | C[C@H]1CN(c2nc(NC(=O)c3ccc(S(=O)(=O)NCCO)cc3N3CCC4(CC3)CC4)ccc2OCF)CCO1 [Compound 435] | ≤ 100
6 | O=C(Nc1ccc(OCF)c(N2CC(F)(F)C2)n1)c1ccc(S(=O)(=O)NCCO)cc1N1CCC2(CC1)CC2 [Compound 436] | ≤ 100
7 | O=C(Nc1ccc(OCF)c(OCCC(F)(F)F)n1)c1ccc(S(=O)(=O)NCCO)cc1N1CCC2(CC1)CC2 [Compound 437] | ≤ 100
8 | O=C(Nc1ccc(OCF)c(N2CCC3(CC3)C2)n1)c1ccc(S(=O)(=O)NCCO)cc1N1CCC2(CC1)CC2 [Compound 438] | ≤ 100
9 | O=C(Nc1ccc(OCF)c(OC2CCC2)n1)c1ccc(S(=O)(=O)NCCO)cc1N1CCC2(CC1)CC2 [Compound 439] | ≤ 100
10 | CC1(F)CCN(c2nc(NC(=O)c3ccc(S(=O)(=O)NCCO)cc3N3CCC4(CC3)CC4)ccc2OCF)C1 (stereo not shown) [Compound 440] | ≤ 100
11 | O=C(Nc1ccc(OCF)c(N2CCC(F)CC2)n1)c1ccc(S(=O)(=O)NCCO)cc1N1CCC2(CC1)CC2 [Compound 441] | ≤ 100
12 | O=C(Nc1ccc(OCF)c(N2CC3CC3C2)n1)c1ccc(S(=O)(=O)NCCO)cc1N1CCC2(CC1)CC2 (stereo not shown) [Compound 442] | ≤ 100
13 | CC(C)(CO)Nc1nc(NC(=O)c2ccc(S(=O)(=O)NCCO)cc2N2CCC3(CC2)CC3)ccc1OCF [Compound 443] | ≤ 100
14 | O=C(Nc1ccc(OCF)c(N2CCOCC2)n1)c1ccc(S(=O)(=O)NCCO)cc1N1CCC2(CC1)CC2 [Compound 444] | ≤ 100
15 | C[C@@H](CO)NS(=O)(=O)c1ccc(C(=O)Nc2ccc(OCF)c(N3CCC(F)(F)CC3)n2)c(N2CCC3(CC2)CC3)c1 [Compound 445] | ≤ 100
16 | C[C@H](CO)NS(=O)(=O)c1ccc(C(=O)Nc2ccc(OCF)c(N3CCC(F)(F)CC3)n2)c(N2CCC3(CC2)CC3)c1 [Compound 446] | ≤ 100
17 | C[C@@H]1CN(c2nc(NC(=O)c3ccc(S(=O)(=O)N[C@@H](C)CO)cc3N3CCC4(CC3)CC4)ccc2OCF)CCO1 [Compound 447] | ≤ 100
18 | C[C@H](CO)NS(=O)(=O)c1ccc(C(=O)Nc2ccc(OCF)c(N3CCO[C@H](C)C3)n2)c(N2CCC3(CC2)CC3)c1 [Compound 448] | ≤ 100
19 | O=C(Nc1ccc(OCF)c(N2CCC(F)(F)CC2)c1)c1cnc(NS(=O)(=O)CCO)cc1N1CCC2(CC1)CC2 [Compound 449] | ≤ 100
20 | C[C@@H]1CN(c2cc(NC(=O)c3cnc(NS(=O)(=O)CCO)cc3N3CCC4(CC3)CC4)ccc2OCF)CCO1 [Compound 450] | ≤ 100
21 | C[C@H]1CN(c2cc(NC(=O)c3cnc(NS(=O)(=O)CCO)cc3N3CCC4(CC3)CC4)ccc2OCF)CCO1 [Compound 451] | ≤ 100
22 | O=C(Nc1ccc(OCF)c(N2CC(F)(F)C2)c1)c1cnc(NS(=O)(=O)CCO)cc1N1CCC2(CC1)CC2 [Compound 452] | ≤ 100
23 | O=C(Nc1ccc(OCF)c(OCCC(F)(F)F)c1)c1cnc(NS(=O)(=O)CCO)cc1N1CCC2(CC1)CC2 [Compound 453] | ≤ 100
24 | O=C(Nc1ccc(OCF)c(N2CCC3(CC3)C2)c1)c1cnc(NS(=O)(=O)CCO)cc1N1CCC2(CC1)CC2 [Compound 454] | ≤ 100
25 | O=C(Nc1ccc(OCF)c(OC2CCC2)c1)c1cnc(NS(=O)(=O)CCO)cc1N1CCC2(CC1)CC2 [Compound 455] | ≤ 100
26 | CC1(F)CCN(c2cc(NC(=O)c3cnc(NS(=O)(=O)CCO)cc3N3CCC4(CC3)CC4)ccc2OCF)C1 (stereo not shown) [Compound 456] | ≤ 100
27 | O=C(Nc1ccc(OCF)c(N2CCC(F)CC2)c1)c1cnc(NS(=O)(=O)CCO)cc1N1CCC2(CC1)CC2 [Compound 457] | ≤ 100

Further lines, results first:

Row | IC50 [nM] | Compound
28 | ≤ 100 | O=C(Nc1ccc(OCF)c(N2CC3CC3C2)c1)c1cnc(NS(=O)(=O)CCO)cc1N1CCC2(CC1)CC2 (stereo not shown) [Compound 458]
29 | ≤ 100 | CC(C)(CO)Nc1cc(NC(=O)c2cnc(NS(=O)(=O)CCO)cc2N2CCC3(CC2)CC3)ccc1OCF [Compound 459]
30 | ≤ 100 | O=C(Nc1ccc(OCF)c(N2CCOCC2)c1)c1cnc(NS(=O)(=O)CCO)cc1N1CCC2(CC1)CC2 [Compound 460]
31 | ≤ 100 | C[C@@H](CO)S(=O)(=O)Nc1cc(N2CCC3(CC2)CC3)c(C(=O)Nc2ccc(OCF)c(N3CCC(F)(F)CC3)c2)cn1 [Compound 461]
32 | ≤ 100 | C[C@H](CO)S(=O)(=O)Nc1cc(N2CCC3(CC2)CC3)c(C(=O)Nc2ccc(OCF)c(N3CCC(F)(F)CC3)c2)cn1 [Compound 462]
33 | ≤ 100 | C[C@@H]1CN(c2cc(NC(=O)c3cnc(NS(=O)(=O)[C@@H](C)CO)cc3N3CCC4(CC3)CC4)ccc2OCF)CCO1 [Compound 463]
34 | ≤ 100 | C[C@@H]1CN(c2cc(NC(=O)c3cnc(NS(=O)(=O)[C@H](C)CO)cc3N3CCC4(CC3)CC4)ccc2OCF)CCO1 [Compound 464]
35 | ≤ 100 | O=C(Nc1ccc(OCF)c(N2CCC(F)(F)CC2)c1)c1cnc(S(=O)(=O)NCCO)cc1N1CCC2(CC1)CC2 [Compound 465]
36 | ≤ 100 | C[C@@H]1CN(c2cc(NC(=O)c3cnc(S(=O)(=O)NCCO)cc3N3CCC4(CC3)CC4)ccc2OCF)CCO1 [Compound 466]
37 | ≤ 100 | C[C@H]1CN(c2cc(NC(=O)c3cnc(S(=O)(=O)NCCO)cc3N3CCC4(CC3)CC4)ccc2OCF)CCO1 [Compound 467]
38 | ≤ 100 | O=C(Nc1ccc(OCF)c(N2CC(F)(F)C2)c1)c1cnc(S(=O)(=O)NCCO)cc1N1CCC2(CC1)CC2 [Compound 468]
39 | ≤ 100 | O=C(Nc1ccc(OCF)c(OCCC(F)(F)F)c1)c1cnc(S(=O)(=O)NCCO)cc1N1CCC2(CC1)CC2 [Compound 469]
40 | ≤ 100 | O=C(Nc1ccc(OCF)c(N2CCC3(CC3)C2)c1)c1cnc(S(=O)(=O)NCCO)cc1N1CCC2(CC1)CC2 [Compound 470]
41 | ≤ 100 | O=C(Nc1ccc(OCF)c(OC2CCC2)c1)c1cnc(S(=O)(=O)NCCO)cc1N1CCC2(CC1)CC2 [Compound 471]
42 | ≤ 100 | CC1(F)CCN(c2cc(NC(=O)c3cnc(S(=O)(=O)NCCO)cc3N3CCC4(CC3)CC4)ccc2OCF)C1 (stereo not shown) [Compound 472]
43 | ≤ 100 | O=C(Nc1ccc(OCF)c(N2CCC(F)CC2)c1)c1cnc(S(=O)(=O)NCCO)cc1N1CCC2(CC1)CC2 [Compound 473]
44 | ≤ 100 | O=C(Nc1ccc(OCF)c(N2CC3CC3C2)c1)c1cnc(S(=O)(=O)NCCO)cc1N1CCC2(CC1)CC2 (stereo not shown) [Compound 474]
45 | ≤ 100 | CC(C)(CO)Nc1cc(NC(=O)c2cnc(S(=O)(=O)NCCO)cc2N2CCC3(CC2)CC3)ccc1OCF [Compound 475]
46 | ≤ 100 | O=C(Nc1ccc(OCF)c(N2CCOCC2)c1)c1cnc(S(=O)(=O)NCCO)cc1N1CCC2(CC1)CC2 [Compound 476]

Row | IC50 [nM] | Compound
47 | ≤ 100 | C[C@@H](CO)NS(=O)(=O)c1cc(N2CCC3(CC2)CC3)c(C(=O)Nc2ccc(OCF)c(N3CCC(F)(F)CC3)c2)cn1 [Compound 477]
48 | ≤ 100 | C[C@H](CO)NS(=O)(=O)c1cc(N2CCC3(CC2)CC3)c(C(=O)Nc2ccc(OCF)c(N3CCC(F)(F)CC3)c2)cn1 [Compound 478]
49 | ≤ 100 | C[C@@H]1CN(c2cc(NC(=O)c3cnc(S(=O)(=O)N[C@@H](C)CO)cc3N3CCC4(CC3)CC4)ccc2OCF)CCO1 [Compound 479]
50 | ≤ 100 | C[C@H](CO)NS(=O)(=O)c1cc(N2CCC3(CC2)CC3)c(C(=O)Nc2ccc(OCF)c(N3CCO[C@H](C)C3)c2)cn1 [Compound 480]
51 | ≤ 100 | O=C(Nc1ccc(OCF)c(N2CCC(F)(F)CC2)n1)c1cnc(NS(=O)(=O)CCO)cc1N1CCC2(CC1)CC2 [Compound 481]
52 | ≤ 100 | C[C@@H]1CN(c2nc(NC(=O)c3cnc(NS(=O)(=O)CCO)cc3N3CCC4(CC3)CC4)ccc2OCF)CCO1 [Compound 482]
53 | ≤ 100 | C[C@H]1CN(c2nc(NC(=O)c3cnc(NS(=O)(=O)CCO)cc3N3CCC4(CC3)CC4)ccc2OCF)CCO1 [Compound 483]
54 | ≤ 100 | O=C(Nc1ccc(OCF)c(N2CC(F)(F)C2)n1)c1cnc(NS(=O)(=O)CCO)cc1N1CCC2(CC1)CC2 [Compound 484]
55 | ≤ 100 | O=C(Nc1ccc(OCF)c(OCCC(F)(F)F)n1)c1cnc(NS(=O)(=O)CCO)cc1N1CCC2(CC1)CC2 [Compound 485]
56 | ≤ 100 | O=C(Nc1ccc(OCF)c(N2CCC3(CC3)C2)n1)c1cnc(NS(=O)(=O)CCO)cc1N1CCC2(CC1)CC2 [Compound 486]
57 | ≤ 100 | O=C(Nc1ccc(OCF)c(OC2CCC2)n1)c1cnc(NS(=O)(=O)CCO)cc1N1CCC2(CC1)CC2 [Compound 487]
58 | ≤ 100 | CC1(F)CCN(c2nc(NC(=O)c3cnc(NS(=O)(=O)CCO)cc3N3CCC4(CC3)CC4)ccc2OCF)C1 (stereo not shown) [Compound 488]
59 | ≤ 100 | O=C(Nc1ccc(OCF)c(N2CCC(F)CC2)n1)c1cnc(NS(=O)(=O)CCO)cc1N1CCC2(CC1)CC2 [Compound 489]
60 | ≤ 100 | O=C(Nc1ccc(OCF)c(N2CC3CC3C2)n1)c1cnc(NS(=O)(=O)CCO)cc1N1CCC2(CC1)CC2 (stereo not shown) [Compound 490]
61 | ≤ 100 | CC(C)(CO)Nc1nc(NC(=O)c2cnc(NS(=O)(=O)CCO)cc2N2CCC3(CC2)CC3)ccc1OCF [Compound 491]
62 | ≤ 100 | O=C(Nc1ccc(OCF)c(N2CCOCC2)n1)c1cnc(NS(=O)(=O)CCO)cc1N1CCC2(CC1)CC2 [Compound 492]
63 | ≤ 100 | C[C@@H](CO)S(=O)(=O)Nc1cc(N2CCC3(CC2)CC3)c(C(=O)Nc2ccc(OCF)c(N3CCC(F)(F)CC3)n2)cn1 [Compound 493]
64 | ≤ 100 | C[C@H](CO)S(=O)(=O)Nc1cc(N2CCC3(CC2)CC3)c(C(=O)Nc2ccc(OCF)c(N3CCC(F)(F)CC3)n2)cn1 [Compound 494]
